Results from ChEMBL document CHEMBL1201862, “PubChem BioAssay data set” (2004).
Active and inactive are the calls of the source.

Tests used:
Bcl-2-related protein A1 [1] = molecular target: T1, Bcl-2-related protein A1 (Mus musculus, UniProt Q07440); assay: Bfl-1 inhibitors blocking BH3 peptide binding, confirmation, biochemical, TR-FRET, mouse Bfl-1 (AID 621);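 note: TR-FRET binding of GST-Bfl-1 to FITC-labelled Bid peptide via terbium antibody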
T1 sequence (Q07440 whole entry): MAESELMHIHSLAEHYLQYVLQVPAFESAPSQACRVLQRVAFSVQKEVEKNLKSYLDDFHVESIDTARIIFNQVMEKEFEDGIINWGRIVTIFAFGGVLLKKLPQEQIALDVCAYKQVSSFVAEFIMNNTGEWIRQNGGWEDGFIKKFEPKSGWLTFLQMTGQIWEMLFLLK

[2] = molecular target: Nucleotide-binding oligomerization domain-containing protein 2 (Homo sapiens, UniProt Q9HC29); assay: NOD2 signaling inhibitors, analog potency, SAR follow-up, cell-based, set 3 (AID 2799); type: functional
HEK293 = assay: SAR analysis of compounds that are cytotoxic to HEK293 - Set 3. [Related pubchem assays (depositor defined):AID1575, AID1578, AID1848, AID1849, AID2001, AID2333, AID2334, AID2335, AID2337, AID2469]; type: functional, cell-based; conditions: Homo sapiens
Tumor necrosis factor = Tumor necrosis factor (Homo sapiens, UniProt P01375); assay: TNFa-triggered NF-kB activation inhibitors, SAR follow-up, cell-based, set 3 (AID 2801); type: functional
Bcl-2-related protein A1 [3] = molecular target: T1, Bcl-2-related protein A1; assay: Bfl-1 binding inhibitors, SAR follow-up, biochemical, fluorescence polarization (AID 1070)
[4] = molecular target: T2, Nucleotide-binding oligomerization domain-containing protein 1 (Homo sapiens, UniProt Q9Y239); assay: SAR analysis of compounds that inhibit NOD1 - Set 3. [Related pubchem assays (depositor defined):AID1566, AID1575, AID1578, AID1849, AID1852, AID2333, AID2335, AID2466]; type: functional
T2 sequence (Q9Y239 whole entry): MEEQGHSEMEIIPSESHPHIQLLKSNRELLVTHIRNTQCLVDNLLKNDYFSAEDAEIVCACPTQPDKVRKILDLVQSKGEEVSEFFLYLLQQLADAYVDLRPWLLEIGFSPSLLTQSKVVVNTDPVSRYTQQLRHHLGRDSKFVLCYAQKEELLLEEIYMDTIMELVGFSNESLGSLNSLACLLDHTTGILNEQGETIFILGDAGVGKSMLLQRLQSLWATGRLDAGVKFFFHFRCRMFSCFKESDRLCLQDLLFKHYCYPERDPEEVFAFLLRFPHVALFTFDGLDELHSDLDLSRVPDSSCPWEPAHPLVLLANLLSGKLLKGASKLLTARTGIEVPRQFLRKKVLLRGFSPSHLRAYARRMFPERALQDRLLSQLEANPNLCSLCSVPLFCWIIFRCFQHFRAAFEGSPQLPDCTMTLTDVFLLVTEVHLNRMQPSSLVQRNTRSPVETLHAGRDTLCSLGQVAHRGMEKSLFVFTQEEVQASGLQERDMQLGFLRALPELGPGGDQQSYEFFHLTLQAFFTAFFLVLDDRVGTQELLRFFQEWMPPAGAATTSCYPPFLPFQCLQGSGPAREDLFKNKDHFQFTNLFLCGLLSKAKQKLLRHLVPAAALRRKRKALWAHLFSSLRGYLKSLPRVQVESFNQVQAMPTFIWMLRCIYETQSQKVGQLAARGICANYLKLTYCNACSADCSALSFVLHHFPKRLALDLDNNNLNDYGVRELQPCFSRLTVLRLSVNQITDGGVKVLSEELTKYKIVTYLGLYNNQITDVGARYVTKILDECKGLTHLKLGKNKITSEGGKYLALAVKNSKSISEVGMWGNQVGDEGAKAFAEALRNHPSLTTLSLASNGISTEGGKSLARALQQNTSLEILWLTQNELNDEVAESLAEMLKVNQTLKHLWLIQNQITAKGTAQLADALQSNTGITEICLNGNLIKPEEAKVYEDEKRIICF

[5] = molecular target: Glyceraldehyde-3-phosphate dehydrogenase (Homo sapiens, UniProt P04406)
[6] = C. albicans growth with fluconazole, confirmation, fluorescence, retest (AID 2467); type: functional, cell-based
[7] = NIH-3T3 fibroblast cytotoxicity, dose response, cytotoxicity control for antifungal single agent project, cell-based, Alamar Blue, dry powder (AID 602188); type: functional
[8] = molecular target: ATP-dependent molecular chaperone HSP82 (Candida albicans (strain WO-1) (Yeast), UniProt C4YTQ8); assay: loss of DOC-induced GRE-beta-galactosidase reporter signal, dose response, Hsp90 inhibitor project, S. cerevisiae, luminescence (AID 2400); type: functional, cell-based;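 note: beta-galactosidase luminescence from glucocorticoid response element reporter as proxy for Hsp90 function; inhibitor potency where signal loss means Hsp90 inhibition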
[9] = Counterscreen for AddAB inhibitors: absorbance-based bacterial cell-based high throughput dose response assay for inhibitors of bacterial viability. [Related pubchem assays (depositor defined):AID435030, AID449728, AID449731, AID488942, AID488955, AID488956]; type: functional
Exodeoxyribonuclease V = Exodeoxyribonuclease V (Escherichia coli (strain K12), UniProt P04993+P07648+P08394); assay: E. coli RecBCD inhibitors, dose response, counter-screen for AddAB inhibitor project, absorbance, V66 E. coli, mutant T4 phage (AID 492957); type: functional, cell-based, Escherichia coli str. K-12 substr. MG1655
Streptococcus = assay: Group A Streptococcus viability loss, dose response, counter-screen for streptokinase expression inhibitor project, luminescence, BacTiterGlo (AID 1915); type: functional, organism-based;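 note: potency for reduction of bacterial viability or growth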
[10] = tested on: Streptococcus sp. 'group A'; assay: growth inhibition of control SK(-) GAS strain, dose response, counter-screen for streptokinase expression inhibitor project, luminescence, kanamycin, BacTiterGlo, confirmation (AID 1900); type: functional, organism-based
[11] = molecular target: T3, Serine/threonine-protein phosphatase (Candida dubliniensis (strain CD36 / CBS 7987 / NCPF 3949 / NRRLY-17841) (Yeast), UniProt B9W6M3); assay: calcineurin pathway inhibitors in yeast reporter, dose response, S. cerevisiae, CDRE-lacZ, luminescence, secondary (AID 2388); type: functional, cell-based;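 note: yeast reporter cells carrying a calcineurin-responsive lacZ construct stimulated with calcium chloride; luminescent beta-galactosidase reporter signal in whole cells rather than isolated phosphatase activity; potency for inhibition where a drop in reporter signal means calcineurin blockade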
T3 sequence (B9W6M3 whole entry): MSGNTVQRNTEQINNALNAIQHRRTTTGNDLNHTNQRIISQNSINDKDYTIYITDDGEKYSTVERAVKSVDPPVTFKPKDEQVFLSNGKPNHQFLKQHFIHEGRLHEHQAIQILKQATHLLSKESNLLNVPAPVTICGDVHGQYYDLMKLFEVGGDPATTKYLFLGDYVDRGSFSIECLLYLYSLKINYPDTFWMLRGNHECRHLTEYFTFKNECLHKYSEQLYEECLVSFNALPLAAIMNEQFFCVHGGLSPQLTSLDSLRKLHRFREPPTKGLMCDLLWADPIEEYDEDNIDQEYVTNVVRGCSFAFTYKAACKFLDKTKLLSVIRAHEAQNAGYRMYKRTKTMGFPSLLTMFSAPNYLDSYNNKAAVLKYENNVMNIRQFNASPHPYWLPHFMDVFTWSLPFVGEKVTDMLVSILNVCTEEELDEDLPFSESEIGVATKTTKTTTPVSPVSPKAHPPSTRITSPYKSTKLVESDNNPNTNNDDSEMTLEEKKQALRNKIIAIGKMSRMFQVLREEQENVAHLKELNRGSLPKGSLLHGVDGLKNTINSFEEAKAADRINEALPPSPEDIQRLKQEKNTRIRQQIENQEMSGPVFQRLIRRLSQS

[12] = NIH-3T3 fibroblast cytotoxicity, dose response, cytotoxicity control, cell-based, fluorescence, Alamar Blue, secondary assay (AID 2327); type: functional;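 note: NIH-3T3 mouse fibroblasts cultured with fluconazole at 8 µg/mL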
[13] = molecular target: T4, High affinity choline transporter 1 (Homo sapiens, UniProt Q9GZV3); assay: CHT inhibitors, dose response, cell-based, 5-point CRC, membrane potential dye (AID 504840); type: functional
T4 sequence (Q9GZV3 whole entry): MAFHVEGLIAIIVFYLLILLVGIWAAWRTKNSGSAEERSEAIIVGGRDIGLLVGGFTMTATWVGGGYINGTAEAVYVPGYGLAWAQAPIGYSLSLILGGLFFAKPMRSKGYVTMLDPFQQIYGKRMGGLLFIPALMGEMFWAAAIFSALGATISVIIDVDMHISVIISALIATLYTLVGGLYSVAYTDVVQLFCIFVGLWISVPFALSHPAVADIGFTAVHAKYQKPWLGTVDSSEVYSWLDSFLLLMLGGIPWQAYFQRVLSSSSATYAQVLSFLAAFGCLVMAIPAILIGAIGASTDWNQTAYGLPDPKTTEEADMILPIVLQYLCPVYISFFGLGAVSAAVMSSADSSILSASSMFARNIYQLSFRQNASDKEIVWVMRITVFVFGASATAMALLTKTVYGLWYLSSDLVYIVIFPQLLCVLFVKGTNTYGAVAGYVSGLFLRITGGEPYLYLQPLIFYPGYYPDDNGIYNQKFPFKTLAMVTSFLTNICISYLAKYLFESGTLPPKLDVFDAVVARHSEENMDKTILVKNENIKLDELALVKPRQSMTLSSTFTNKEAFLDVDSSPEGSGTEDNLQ

Exodeoxyribonuclease V, sequence (P04993 whole entry): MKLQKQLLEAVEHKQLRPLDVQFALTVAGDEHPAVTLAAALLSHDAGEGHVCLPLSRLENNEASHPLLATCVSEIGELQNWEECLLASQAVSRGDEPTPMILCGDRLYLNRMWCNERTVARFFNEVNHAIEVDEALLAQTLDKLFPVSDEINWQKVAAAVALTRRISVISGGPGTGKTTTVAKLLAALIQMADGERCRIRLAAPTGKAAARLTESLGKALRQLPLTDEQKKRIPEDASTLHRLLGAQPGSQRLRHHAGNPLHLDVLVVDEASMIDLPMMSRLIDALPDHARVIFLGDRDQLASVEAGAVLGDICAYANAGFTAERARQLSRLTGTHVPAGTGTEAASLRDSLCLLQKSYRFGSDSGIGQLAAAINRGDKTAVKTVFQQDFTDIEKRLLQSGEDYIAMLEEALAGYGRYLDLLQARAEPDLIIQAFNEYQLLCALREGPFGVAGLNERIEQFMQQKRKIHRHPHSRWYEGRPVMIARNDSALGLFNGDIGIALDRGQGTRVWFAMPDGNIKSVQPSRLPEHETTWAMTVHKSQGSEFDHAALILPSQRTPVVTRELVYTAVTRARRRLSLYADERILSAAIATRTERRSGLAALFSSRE
Exodeoxyribonuclease V, sequence (P07648 whole entry): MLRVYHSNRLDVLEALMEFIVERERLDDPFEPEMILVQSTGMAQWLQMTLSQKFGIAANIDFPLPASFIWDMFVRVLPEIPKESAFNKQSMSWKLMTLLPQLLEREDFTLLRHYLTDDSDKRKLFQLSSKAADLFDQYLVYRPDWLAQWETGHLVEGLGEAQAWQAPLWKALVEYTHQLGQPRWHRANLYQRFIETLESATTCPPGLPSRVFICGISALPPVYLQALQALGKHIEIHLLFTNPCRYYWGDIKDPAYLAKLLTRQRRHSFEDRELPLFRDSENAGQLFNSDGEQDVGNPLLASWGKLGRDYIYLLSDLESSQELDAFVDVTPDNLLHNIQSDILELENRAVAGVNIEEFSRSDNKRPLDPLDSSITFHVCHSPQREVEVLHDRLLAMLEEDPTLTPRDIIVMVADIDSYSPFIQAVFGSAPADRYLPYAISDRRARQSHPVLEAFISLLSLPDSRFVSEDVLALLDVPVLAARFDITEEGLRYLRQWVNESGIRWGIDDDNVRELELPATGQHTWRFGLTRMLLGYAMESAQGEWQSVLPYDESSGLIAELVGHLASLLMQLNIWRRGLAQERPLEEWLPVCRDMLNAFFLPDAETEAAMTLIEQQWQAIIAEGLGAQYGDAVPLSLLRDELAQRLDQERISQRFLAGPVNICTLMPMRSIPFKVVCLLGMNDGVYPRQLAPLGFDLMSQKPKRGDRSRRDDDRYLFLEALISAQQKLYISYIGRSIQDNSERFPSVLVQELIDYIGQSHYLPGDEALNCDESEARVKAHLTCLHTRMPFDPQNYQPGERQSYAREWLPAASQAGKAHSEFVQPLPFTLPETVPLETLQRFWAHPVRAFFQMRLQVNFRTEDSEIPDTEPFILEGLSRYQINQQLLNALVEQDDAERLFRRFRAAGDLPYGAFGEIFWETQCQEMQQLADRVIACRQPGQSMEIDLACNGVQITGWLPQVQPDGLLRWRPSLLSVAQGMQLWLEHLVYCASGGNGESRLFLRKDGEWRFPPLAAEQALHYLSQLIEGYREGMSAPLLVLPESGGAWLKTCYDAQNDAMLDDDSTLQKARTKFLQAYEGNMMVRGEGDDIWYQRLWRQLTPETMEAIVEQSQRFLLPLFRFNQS
Exodeoxyribonuclease V, sequence (P08394 whole entry): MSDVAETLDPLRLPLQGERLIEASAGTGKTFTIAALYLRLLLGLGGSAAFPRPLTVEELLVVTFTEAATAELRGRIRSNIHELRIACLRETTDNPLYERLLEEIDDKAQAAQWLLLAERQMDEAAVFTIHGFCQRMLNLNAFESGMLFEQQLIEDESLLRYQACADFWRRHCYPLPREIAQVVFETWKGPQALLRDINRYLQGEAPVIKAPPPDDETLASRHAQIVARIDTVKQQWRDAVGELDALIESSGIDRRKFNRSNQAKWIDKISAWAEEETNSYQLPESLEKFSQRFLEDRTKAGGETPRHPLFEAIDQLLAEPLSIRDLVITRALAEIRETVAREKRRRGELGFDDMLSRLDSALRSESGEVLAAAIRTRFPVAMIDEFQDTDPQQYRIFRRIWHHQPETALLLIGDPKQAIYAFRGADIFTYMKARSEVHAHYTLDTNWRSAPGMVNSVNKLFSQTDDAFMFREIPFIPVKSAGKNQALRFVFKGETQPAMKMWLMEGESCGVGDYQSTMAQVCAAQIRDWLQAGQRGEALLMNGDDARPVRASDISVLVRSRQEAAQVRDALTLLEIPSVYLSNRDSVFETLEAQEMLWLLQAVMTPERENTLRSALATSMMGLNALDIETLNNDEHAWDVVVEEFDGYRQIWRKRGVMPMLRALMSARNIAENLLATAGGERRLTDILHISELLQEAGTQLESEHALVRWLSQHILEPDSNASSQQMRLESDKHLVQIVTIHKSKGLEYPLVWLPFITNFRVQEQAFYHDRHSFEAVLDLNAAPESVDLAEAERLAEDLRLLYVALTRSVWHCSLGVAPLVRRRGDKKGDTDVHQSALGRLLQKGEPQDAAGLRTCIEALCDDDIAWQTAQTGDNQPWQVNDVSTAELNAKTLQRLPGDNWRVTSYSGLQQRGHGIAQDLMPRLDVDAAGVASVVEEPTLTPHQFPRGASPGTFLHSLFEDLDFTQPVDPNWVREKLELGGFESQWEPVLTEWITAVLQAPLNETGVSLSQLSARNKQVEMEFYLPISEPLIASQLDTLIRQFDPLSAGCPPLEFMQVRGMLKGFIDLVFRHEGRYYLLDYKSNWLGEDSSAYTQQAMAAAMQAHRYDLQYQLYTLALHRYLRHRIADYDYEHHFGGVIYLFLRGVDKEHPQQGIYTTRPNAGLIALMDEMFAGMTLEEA
ATP-dependent molecular chaperone HSP82, sequence (C4YTQ8 whole entry): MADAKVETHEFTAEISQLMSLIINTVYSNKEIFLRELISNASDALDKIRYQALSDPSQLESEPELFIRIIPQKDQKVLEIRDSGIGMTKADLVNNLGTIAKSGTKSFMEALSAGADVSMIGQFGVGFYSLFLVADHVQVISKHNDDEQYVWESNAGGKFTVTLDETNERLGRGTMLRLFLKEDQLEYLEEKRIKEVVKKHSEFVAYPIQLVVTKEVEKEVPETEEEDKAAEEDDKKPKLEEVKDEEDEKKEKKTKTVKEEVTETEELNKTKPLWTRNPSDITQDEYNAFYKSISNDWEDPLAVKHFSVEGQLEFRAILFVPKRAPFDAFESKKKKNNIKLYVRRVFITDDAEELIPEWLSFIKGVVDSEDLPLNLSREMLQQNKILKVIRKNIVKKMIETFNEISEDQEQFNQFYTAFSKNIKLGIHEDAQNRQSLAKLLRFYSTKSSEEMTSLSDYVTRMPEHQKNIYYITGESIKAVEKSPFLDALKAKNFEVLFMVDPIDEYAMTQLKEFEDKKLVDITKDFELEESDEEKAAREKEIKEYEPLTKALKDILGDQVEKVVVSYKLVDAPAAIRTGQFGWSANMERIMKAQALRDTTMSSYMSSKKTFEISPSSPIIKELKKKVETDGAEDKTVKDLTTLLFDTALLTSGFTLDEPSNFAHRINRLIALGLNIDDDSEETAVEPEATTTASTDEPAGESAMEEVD
Tumor necrosis factor, sequence (P01375 whole entry): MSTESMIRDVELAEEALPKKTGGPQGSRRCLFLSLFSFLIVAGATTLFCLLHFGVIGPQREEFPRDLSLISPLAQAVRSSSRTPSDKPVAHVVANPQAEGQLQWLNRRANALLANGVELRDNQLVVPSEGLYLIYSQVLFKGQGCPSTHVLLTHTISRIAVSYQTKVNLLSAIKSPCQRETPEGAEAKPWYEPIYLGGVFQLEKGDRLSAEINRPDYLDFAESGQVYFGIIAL
Glyceraldehyde-3-phosphate dehydrogenase, sequence (P04406 whole entry): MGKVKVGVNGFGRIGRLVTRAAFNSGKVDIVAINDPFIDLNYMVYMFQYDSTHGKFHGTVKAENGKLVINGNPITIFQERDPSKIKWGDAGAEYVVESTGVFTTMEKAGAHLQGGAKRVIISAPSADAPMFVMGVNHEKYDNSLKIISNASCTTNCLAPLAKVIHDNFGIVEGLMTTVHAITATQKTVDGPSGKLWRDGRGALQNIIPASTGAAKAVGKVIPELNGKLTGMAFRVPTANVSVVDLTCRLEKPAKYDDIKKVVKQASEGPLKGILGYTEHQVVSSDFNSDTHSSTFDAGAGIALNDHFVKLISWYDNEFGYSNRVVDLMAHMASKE

SMILES	IC50 (Bcl-2-related protein A1 [1])	IC50 [2]	IC50 (HEK293)	IC50 (Tumor necrosis factor)	IC50 (Bcl-2-related protein A1 [3])	IC50 [4]	IC50 [5]	EC50 [6]	AC50 [7]	EC50 [8]	IC50 [9]	IC50 (Exodeoxyribonuclease V)	EC50 (Streptococcus)	EC50 [10]	EC50 [11]	EC50 [12]	IC50 [13]
Nc1cc(-c2ccccc2)nn1S(=O)(=O)c1c(F)c(F)c(F)c(F)c1F	5.83 µM (active)	> 20 µM (inactive)	> 20 µM (inactive)	> 20 µM (inactive)	> 100 µM (not active)	> 20 µM (inactive)	> 100 µM (not active)	–	–	–	–	–	–	–	–	–	–
Cc1ccc(-c2nc3c(Cl)cc(Cl)cc3c(=O)n2O)cc1	–	–	–	–	–	–	–	0.891 µM (active)	16.2 µM (active)	3.24 µM (active)	> 119 µM (inactive)	> 119 µM (inactive)	2.15 µM (active)	2.19 µM (active)	> 180 µM (inactive)	31 µM (inconclusive)	15.1 µM (active)
